Experimental data: patent publication EP2669372A1, “HPPD variants and methods of use” (Bayer CropScience AG, priority 2010, dated 2012)
Read-outs that look alike come from different tables or passages of the source.

Legend:
Experiment in all cases: biochemical
[1] = target: T1, Arabidopsis HPPD single point mutant "SEQ ID No. 40" (Arabidopsis thaliana, UniProt P93836, V269A)
T1 construct: encoding mutant HPPD polypeptide, plus containing at the 5' end a nucleic acid encoding an alanine and 6 histidine amino acids; made in house; host or cells: E. coli BL21 (DE3) (described for the wild type construct)
T1 sequence (P93836 whole entry V269A): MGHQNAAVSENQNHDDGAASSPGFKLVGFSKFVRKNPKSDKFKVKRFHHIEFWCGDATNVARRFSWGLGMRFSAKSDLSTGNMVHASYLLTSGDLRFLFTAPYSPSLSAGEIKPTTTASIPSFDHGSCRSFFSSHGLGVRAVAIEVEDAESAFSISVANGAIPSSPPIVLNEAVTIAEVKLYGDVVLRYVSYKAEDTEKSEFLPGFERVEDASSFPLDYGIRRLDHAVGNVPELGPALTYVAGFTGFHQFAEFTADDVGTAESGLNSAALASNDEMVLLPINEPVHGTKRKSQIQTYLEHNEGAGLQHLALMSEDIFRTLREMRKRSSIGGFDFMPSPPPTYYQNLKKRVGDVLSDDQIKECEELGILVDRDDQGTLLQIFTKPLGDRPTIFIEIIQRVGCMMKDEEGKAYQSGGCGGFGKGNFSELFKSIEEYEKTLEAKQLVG
Source text: (§1) In this content, pI50-value means the log value of the concentration of inhibitor necessary to inhibit 50% of the enzyme activity in molar concentration.

[2] = target: T2, Arabidopsis HPPD single point mutant "SEQ ID No. 42" (Arabidopsis thaliana, UniProt P93836, P280A)
T2 construct: encoding mutant HPPD polypeptide, plus containing at the 5' end a nucleic acid encoding an alanine and 6 histidine amino acids; made in house; host or cells: E. coli BL21 (DE3) (described for the wild type construct)
T2 sequence (P93836 whole entry P280A): as the sequence (P93836 whole entry V269A) above, with A269V, P280A counted along it
Source text: as §1

[3] = target: T3, Arabidopsis HPPD single point mutant "SEQ ID No. 35" (Arabidopsis thaliana, UniProt P93836, E252S)
T3 construct: encoding mutant HPPD polypeptide, plus containing at the 5' end a nucleic acid encoding an alanine and 6 histidine amino acids; Ala + His6 behind Met1 (N); made in house; host or cells: E. coli BL21 (DE3) (described for the wild type construct)
T3 sequence (P93836 whole entry E252S): as the sequence (P93836 whole entry V269A) above, with E252S, A269V counted along it
Source text: as §1

[4] = target: T4, Arabidopsis HPPD single point mutant "SEQ ID No. 46" (Arabidopsis thaliana, UniProt P93836, K421I)
T4 construct: encoding mutant HPPD polypeptide, plus containing at the 5' end a nucleic acid encoding an alanine and 6 histidine amino acids; made in house; host or cells: E. coli BL21 (DE3) (described for the wild type construct)
T4 sequence (P93836 whole entry K421I): as the sequence (P93836 whole entry V269A) above, with A269V, K421I counted along it
Source text: as §1

[5] = target: T5, Arabidopsis HPPD single point mutant "SEQ ID No. 50" (Arabidopsis thaliana, UniProt P93836, K421V)
T5 construct: encoding mutant HPPD polypeptide, plus containing at the 5' end a nucleic acid encoding an alanine and 6 histidine amino acids; made in house; host or cells: E. coli BL21 (DE3) (described for the wild type construct)
T5 sequence (P93836 whole entry K421V): as the sequence (P93836 whole entry V269A) above, with A269V, K421V counted along it
Source text: as §1

[6] = target: T6, Arabidopsis HPPD single point mutant "SEQ ID No. 48" (Arabidopsis thaliana, UniProt P93836, K421Q)
T6 construct: encoding mutant HPPD polypeptide, plus containing at the 5' end a nucleic acid encoding an alanine and 6 histidine amino acids; made in house; host or cells: E. coli BL21 (DE3) (described for the wild type construct)
T6 sequence (P93836 whole entry K421Q): as the sequence (P93836 whole entry V269A) above, with A269V, K421Q counted along it
Source text: as §1

[7] = target: T7, Arabidopsis HPPD single point mutant "SEQ ID No. 44" (Arabidopsis thaliana, UniProt P93836, L368M)
T7 construct: encoding mutant HPPD polypeptide, plus containing at the 5' end a nucleic acid encoding an alanine and 6 histidine amino acids; made in house; host or cells: E. coli BL21 (DE3) (described for the wild type construct)
T7 sequence (P93836 whole entry L368M): as the sequence (P93836 whole entry V269A) above, with A269V, L368M counted along it
Source text: as §1

| SMILES | IC50 [1] | IC50 [2] | IC50 [3] | IC50 [4] | IC50 [5] | IC50 [6] | IC50 ([7]; read-out: pI50 (converted)) | IC50 [7] |
| --- | --- | --- | --- | --- | --- | --- | --- | --- |
| Cc1nn(C)c(O)c1C(=O)c1ccc(C(F)(F)F)cc1S(C)(=O)=O [Pyrasulfotole] | 39.8 µM | 39.8 µM | 50.1 µM | 50.1 µM | 39.8 µM | 15.8 µM | 10 µM | – |
| Cc1ccc(S(=O)(=O)Oc2c(C(=O)c3ccc(Cl)cc3Cl)c(C)nn2C)cc1 [Pyrazolat] | 39.8 µM | 20 µM | 20 µM | 31.6 µM | 31.6 µM | 10 µM | – | 12.6 µM |
